From ChEMBL document CHEMBL3991601, “The target landscape of clinical kinase drugs” (Science, 2017)
Calls of active or inactive are those of the source.

Key:
[1] = target: T1, Serine/threonine-protein kinase Nek2 (Homo sapiens, UniProt P51955)
T1 sequence (P51955 whole entry): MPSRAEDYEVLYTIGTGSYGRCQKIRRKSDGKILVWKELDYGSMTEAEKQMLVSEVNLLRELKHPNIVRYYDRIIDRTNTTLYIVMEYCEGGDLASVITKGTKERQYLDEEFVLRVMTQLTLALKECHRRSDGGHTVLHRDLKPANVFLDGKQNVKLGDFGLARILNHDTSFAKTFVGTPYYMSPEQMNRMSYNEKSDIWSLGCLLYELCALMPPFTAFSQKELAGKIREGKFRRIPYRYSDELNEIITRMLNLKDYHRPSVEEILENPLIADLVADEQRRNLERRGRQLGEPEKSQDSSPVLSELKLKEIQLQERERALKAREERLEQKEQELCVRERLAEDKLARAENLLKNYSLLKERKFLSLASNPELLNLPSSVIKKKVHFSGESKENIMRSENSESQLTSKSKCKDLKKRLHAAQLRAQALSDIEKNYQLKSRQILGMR

[2] = target: cAMP-dependent protein kinase type II-alpha regulatory subunit (Homo sapiens, UniProt P13861)
[3] = target: T2, Glycogen phosphorylase, liver form (Homo sapiens, UniProt P06737); type: subcellular, K-562, COLO 205, SK-N-BE(2) and MV-4-11, Cell lysate; conditions: read-out: Kd apparent
T2 sequence (P06737 whole entry): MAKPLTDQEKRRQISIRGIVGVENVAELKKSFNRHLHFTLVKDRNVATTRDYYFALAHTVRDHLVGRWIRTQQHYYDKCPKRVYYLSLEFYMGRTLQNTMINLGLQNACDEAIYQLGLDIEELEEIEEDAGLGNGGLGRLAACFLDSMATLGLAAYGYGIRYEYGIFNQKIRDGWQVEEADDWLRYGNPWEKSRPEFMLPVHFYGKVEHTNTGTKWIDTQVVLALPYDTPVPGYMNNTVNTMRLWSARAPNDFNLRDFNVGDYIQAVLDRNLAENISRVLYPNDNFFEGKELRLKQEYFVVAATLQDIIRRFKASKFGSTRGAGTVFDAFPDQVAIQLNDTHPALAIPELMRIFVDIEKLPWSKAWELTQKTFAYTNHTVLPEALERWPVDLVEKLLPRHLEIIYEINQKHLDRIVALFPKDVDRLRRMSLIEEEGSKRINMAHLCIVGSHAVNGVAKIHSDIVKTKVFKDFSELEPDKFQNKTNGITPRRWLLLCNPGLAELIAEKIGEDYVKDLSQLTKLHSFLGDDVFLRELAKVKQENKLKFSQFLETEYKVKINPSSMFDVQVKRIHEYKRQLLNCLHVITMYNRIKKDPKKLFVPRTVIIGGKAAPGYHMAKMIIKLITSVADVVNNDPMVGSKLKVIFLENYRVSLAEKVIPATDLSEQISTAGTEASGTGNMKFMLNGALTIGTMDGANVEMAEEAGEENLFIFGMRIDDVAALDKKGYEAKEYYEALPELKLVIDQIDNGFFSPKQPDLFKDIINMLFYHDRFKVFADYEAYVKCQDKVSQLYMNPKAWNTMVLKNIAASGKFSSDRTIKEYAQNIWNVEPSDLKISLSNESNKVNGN

[4] = target: T3, Bone morphogenetic protein receptor type-2 (Homo sapiens, UniProt Q13873)
T3 sequence (Q13873 whole entry): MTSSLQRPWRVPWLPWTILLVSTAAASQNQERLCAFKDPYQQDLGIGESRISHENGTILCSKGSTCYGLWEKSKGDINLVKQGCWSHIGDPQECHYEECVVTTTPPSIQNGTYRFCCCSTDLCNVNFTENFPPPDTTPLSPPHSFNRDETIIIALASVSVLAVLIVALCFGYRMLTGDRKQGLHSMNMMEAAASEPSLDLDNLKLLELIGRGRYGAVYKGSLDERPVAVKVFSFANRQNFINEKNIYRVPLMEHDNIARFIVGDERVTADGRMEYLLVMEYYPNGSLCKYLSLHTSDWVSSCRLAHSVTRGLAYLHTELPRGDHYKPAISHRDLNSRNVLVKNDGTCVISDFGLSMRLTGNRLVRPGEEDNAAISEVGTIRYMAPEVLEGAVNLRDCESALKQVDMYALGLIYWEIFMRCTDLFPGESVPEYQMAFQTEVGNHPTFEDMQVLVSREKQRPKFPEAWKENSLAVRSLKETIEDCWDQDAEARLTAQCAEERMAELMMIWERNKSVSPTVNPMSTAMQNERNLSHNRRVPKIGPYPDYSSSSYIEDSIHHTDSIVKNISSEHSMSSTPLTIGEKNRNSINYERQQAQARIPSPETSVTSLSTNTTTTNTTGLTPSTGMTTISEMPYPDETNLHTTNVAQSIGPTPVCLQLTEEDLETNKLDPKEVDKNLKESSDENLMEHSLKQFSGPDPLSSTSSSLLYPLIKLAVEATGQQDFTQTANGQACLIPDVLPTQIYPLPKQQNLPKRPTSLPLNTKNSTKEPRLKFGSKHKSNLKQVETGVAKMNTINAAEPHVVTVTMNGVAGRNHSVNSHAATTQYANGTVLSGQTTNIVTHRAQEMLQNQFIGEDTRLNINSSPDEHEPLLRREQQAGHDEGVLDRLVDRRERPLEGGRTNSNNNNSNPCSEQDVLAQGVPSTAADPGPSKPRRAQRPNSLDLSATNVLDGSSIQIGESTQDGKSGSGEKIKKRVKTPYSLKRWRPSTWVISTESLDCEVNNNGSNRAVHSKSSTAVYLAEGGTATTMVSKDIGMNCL

[5] = target: T4, Mitogen-activated protein kinase 15 (Homo sapiens, UniProt Q8TD08)
T4 sequence (Q8TD08 whole entry): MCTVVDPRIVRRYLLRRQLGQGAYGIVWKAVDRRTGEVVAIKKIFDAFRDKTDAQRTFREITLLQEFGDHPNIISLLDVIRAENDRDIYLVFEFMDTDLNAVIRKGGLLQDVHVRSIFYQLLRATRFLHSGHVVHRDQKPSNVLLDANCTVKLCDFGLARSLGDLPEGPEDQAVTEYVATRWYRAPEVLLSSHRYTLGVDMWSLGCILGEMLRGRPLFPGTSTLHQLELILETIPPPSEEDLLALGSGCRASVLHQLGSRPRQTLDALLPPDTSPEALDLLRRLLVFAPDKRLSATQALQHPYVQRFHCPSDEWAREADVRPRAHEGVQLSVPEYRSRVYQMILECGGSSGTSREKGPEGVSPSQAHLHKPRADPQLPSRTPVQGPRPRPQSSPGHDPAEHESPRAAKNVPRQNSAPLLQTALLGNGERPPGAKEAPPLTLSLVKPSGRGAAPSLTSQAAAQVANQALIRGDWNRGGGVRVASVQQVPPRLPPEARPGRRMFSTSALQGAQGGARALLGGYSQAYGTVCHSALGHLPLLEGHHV
Further: in the data inactive means no Kd found up to 30 µM.

cAMP-dependent protein kinase type II-alpha regulatory subunit, sequence (P13861 whole entry): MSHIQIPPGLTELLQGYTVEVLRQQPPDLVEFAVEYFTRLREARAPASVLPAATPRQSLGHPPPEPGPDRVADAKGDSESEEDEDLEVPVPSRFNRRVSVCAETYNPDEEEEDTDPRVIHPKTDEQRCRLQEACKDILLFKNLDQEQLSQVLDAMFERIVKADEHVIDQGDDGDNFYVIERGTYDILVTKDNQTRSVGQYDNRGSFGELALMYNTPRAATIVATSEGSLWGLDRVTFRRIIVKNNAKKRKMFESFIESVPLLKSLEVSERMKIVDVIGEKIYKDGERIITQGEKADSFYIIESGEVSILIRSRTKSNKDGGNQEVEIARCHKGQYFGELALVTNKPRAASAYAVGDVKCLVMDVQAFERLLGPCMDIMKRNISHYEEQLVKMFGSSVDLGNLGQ

SMILES | Kd [1] | Kd [2] | Kd [3] | Kd [4] | Kd [5]
O=c1[nH]c([C@@H]2CCCN2)nc2c1oc1ccc(Cl)cc12 | > 30 µM (inactive) | > 30 µM (inactive) | > 30 µM (inactive) | > 30 µM (inactive) | > 30 µM (inactive)
Cn1cc(-c2[nH]c3cc(NC(=O)[C@H](N)C4CCCCC4)cc4c3c2C=NNC4=O)cn1 | > 30 µM (inactive) | > 30 µM (inactive) | > 30 µM (inactive) | > 30 µM (inactive) | > 30 µM (inactive)
CCN1CCN(Cc2ccc(Nc3ncc(F)c(-c4cc(F)c5nc(C)n(C(C)C)c5c4)n3)nc2)CC1 [ABEMACICLIB] | > 30 µM (inactive) | > 30 µM (inactive) | > 30 µM (inactive) | > 30 µM (inactive) | > 30 µM (inactive)
Cc1c(NC(=O)OC[C@@H]2COCCN2)cn2ncnc(Nc3ccc4c(cnn4Cc4cccc(F)c4)c3)c12 [AC-480] | > 30 µM (inactive) | > 30 µM (inactive) | > 30 µM (inactive) | > 30 µM (inactive) | > 30 µM (inactive)
C=CCn1c(=O)c2cnc(Nc3ccc(N4CCN(C)CC4)cc3)nc2n1-c1cccc(C(C)(C)O)n1 [ADAVOSERTIB] |  | > 30 µM (inactive) | > 30 µM (inactive) | > 30 µM (inactive) | > 30 µM (inactive)
CN(C)C/C=C/C(=O)Nc1cc2c(Nc3ccc(F)c(Cl)c3)ncnc2cc1O[C@H]1CCOC1 [AFATINIB] |  | > 30 µM (inactive) | > 30 µM (inactive) |  | 
CCc1cc2c(cc1N1CCC(N3CCOCC3)CC1)C(C)(C)c1[nH]c3cc(C#N)ccc3c1C2=O [ALECTINIB] | > 30 µM (inactive) | > 30 µM (inactive) | > 30 µM (inactive) | > 30 µM (inactive) | > 30 µM (inactive)
NC[C@@](O)(c1ccc(Cl)cc1)c1ccc(-c2cn[nH]c2)cc1 [AT-13148] | > 30 µM (inactive) | > 30 µM (inactive) | > 30 µM (inactive) | > 30 µM (inactive) | > 30 µM (inactive)
Cc1cc(Nc2nc(N[C@@H](C)c3ncc(F)cn3)ncc2Cl)n[nH]1 [AZD-1480] | > 30 µM (inactive) | > 30 µM (inactive) | > 30 µM (inactive) | > 30 µM (inactive) | > 30 µM (inactive)
CC[C@@](C)(Nc1ccnc(-c2c[nH]c3ncccc23)n1)C(=O)NCC(F)(F)F [DECERNOTINIB] | > 30 µM (inactive) |  | > 30 µM (inactive) | > 30 µM (inactive) | > 30 µM (inactive)
O=S(=O)(c1cccc2cnccc12)N1CCCNCC1 [FASUDIL] |  | > 30 µM (inactive) | > 30 µM (inactive) | > 30 µM (inactive) | > 30 µM (inactive)
C[C@]1(O)C[C@@H](c2nc(-c3ccc4ccc(-c5ccccc5)nc4c3)c3c(N)nccn32)C1 [LINSITINIB] |  | > 30 µM (inactive) | > 30 µM (inactive) | > 30 µM (inactive) | > 30 µM (inactive)
CN(c1ncccc1CNc1nc(Nc2ccc3c(c2)CC(=O)N3)ncc1C(F)(F)F)S(C)(=O)=O [PF-00562271] |  | > 30 µM (inactive) | > 30 µM (inactive) | > 30 µM (inactive) | 1.47 µM
CC(C)CC(=O)Nc1[nH]nc2c1CN(C(=O)C1CCN(C)CC1)C2(C)C [PHA-793887] |  | > 30 µM (inactive) | > 30 µM (inactive) | > 30 µM (inactive) | 0.264 µM (active)
C=CC(=O)Nc1cccc(Nc2nc(Nc3ccc(N4CCN(C(C)=O)CC4)cc3OC)ncc2C(F)(F)F)c1 [ROCILETINIB] | > 30 µM (inactive) |  | > 30 µM (inactive) | > 30 µM (inactive) | > 30 µM (inactive)
Cn1cnc2c(F)c(Nc3ccc(Br)cc3Cl)c(C(=O)NOCCO)cc21 [SELUMETINIB] |  | > 30 µM (inactive) | > 30 µM (inactive) |  | 

Second part, led by results:

Kd [1] | Kd [2] | Kd [3] | Kd [4] | SMILES | Kd [5]
> 30 µM (inactive) | > 30 µM (inactive) | > 30 µM (inactive) | > 30 µM (inactive) | COc1ccc2c(OCc3nnc4ccc(-c5ccccc5)nn34)ccnc2c1 [AMG-208] | > 30 µM (inactive)
> 30 µM (inactive) | > 30 µM (inactive) | > 30 µM (inactive) | > 30 µM (inactive) | S=C(NCc1ccc2c(c1)OCO2)N1CCN(c2ncnc3c2oc2ccccc23)CC1 [AMUVATINIB] | > 30 µM (inactive)
 | > 30 µM (inactive) | > 30 µM (inactive) | > 30 µM (inactive) | CCN(CCCOc1ccc2c(Nc3cc(CC(=O)Nc4cccc(F)c4)n[nH]3)ncnc2c1)CCOP(=O)(O)O [BARASERTIB] | > 30 µM (inactive)
 |  | > 30 µM (inactive) |  | C[C@@]1(C(=O)Nc2ccc(F)nc2)CCCN1c1nc(Nc2cc(C3CC3)n[nH]2)c2cccn2n1 [BMS-754807] | 
> 30 µM (inactive) | > 30 µM (inactive) | > 30 µM (inactive) |  | CCOc1ccn(-c2ccc(F)cc2)c(=O)c1C(=O)Nc1ccc(Oc2ccnc(N)c2Cl)c(F)c1 [BMS-777607] | > 30 µM (inactive)
 | > 30 µM (inactive) | > 30 µM (inactive) |  | COc1cc2c(Oc3ccc4[nH]c(C)cc4c3F)ncnc2cc1OCCCN1CCCC1 [CEDIRANIB] | 
 | > 30 µM (inactive) | > 30 µM (inactive) | > 30 µM (inactive) | Cn1c(=O)n(-c2ccc(C(C)(C)C#N)cc2)c2c3cc(-c4cnc5ccccc5c4)ccc3ncc21 [DACTOLISIB] | > 30 µM (inactive)
 | > 30 µM (inactive) | > 30 µM (inactive) |  | CC1(C)CNc2cc(NC(=O)c3cccnc3NCc3ccncc3)ccc21 [MOTESANIB] | 
 | > 30 µM (inactive) | > 30 µM (inactive) |  | COc1cc2c(N3CCN(C(=O)Nc4ccc(OC(C)C)cc4)CC3)ncnc2cc1OCCCN1CCCCC1 [TANDUTINIB] | 
